Drawing on patent publication US11226337B2, “Chemoproteomic profiling of protein electrophilic and oxidative post-translational modifications” (Zenagem, LLC, priority 2017, dated 2022), this text covers enrichment ratioavg and competition ratioavg for 2 compounds.

Assay [1] concerns the target T1, PSAP Proactivator polypeptide (P07602) (Homo sapiens, UniProt P07602).
T1 construct: In Situ Labelling of Cells with Hydrazine Probes for MS Experiments; endogenous in cells; host or cells: HEK293T and MDA-MB-231
T1 sequence (P07602 60-524): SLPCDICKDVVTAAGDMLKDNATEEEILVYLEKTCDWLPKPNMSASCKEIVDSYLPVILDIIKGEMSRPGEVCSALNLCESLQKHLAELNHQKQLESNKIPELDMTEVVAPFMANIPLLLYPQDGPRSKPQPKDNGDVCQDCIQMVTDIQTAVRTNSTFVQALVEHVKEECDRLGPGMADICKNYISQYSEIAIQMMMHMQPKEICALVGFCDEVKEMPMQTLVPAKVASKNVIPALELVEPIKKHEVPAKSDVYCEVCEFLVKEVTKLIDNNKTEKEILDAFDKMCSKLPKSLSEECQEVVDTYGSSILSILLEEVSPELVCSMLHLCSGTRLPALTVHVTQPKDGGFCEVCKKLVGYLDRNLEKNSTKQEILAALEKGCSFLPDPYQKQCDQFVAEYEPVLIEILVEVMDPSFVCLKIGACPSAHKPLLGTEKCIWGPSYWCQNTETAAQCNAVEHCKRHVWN
Description: SILAC RP-ABPP. The format is cell-based. As to conditions: SILAC H/L, MDA-MB-231.

For assay [2], the target named is T2, KEAP1 Kelchlike ECHassociated protein 1 (Q14145) (Homo sapiens, UniProt Q14145).
T2 construct: shared by both the endogenous and recombinant forms of these proteins; endogenous in cells; host or cells: HEK293T and MDA-MB-231
T2 sequence (Q14145 whole entry): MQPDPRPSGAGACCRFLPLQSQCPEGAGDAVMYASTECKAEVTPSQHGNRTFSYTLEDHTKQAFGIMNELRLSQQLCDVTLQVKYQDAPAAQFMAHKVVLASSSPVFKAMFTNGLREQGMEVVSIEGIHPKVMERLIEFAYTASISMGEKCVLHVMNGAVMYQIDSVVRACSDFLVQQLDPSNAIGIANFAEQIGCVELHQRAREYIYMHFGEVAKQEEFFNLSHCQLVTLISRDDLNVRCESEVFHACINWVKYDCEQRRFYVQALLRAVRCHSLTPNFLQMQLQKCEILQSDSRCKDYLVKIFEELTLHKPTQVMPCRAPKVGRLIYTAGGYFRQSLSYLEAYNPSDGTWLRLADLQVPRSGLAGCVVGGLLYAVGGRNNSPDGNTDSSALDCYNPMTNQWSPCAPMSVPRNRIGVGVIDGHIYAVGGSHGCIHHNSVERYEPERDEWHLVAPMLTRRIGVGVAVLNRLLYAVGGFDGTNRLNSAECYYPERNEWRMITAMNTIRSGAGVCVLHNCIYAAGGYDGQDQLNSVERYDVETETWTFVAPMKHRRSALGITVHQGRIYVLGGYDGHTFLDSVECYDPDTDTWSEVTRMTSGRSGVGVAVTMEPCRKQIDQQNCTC
Description: SILAC RP-ABPP. The class given is cell-based. As to conditions: SILAC H/L.

SMILES strings stand for the structures.

`C#CCCNC(=O)c1ccc(NN)cc1.Cl` [probe 2, N-(but-3-yn-1-yl)-4-hydrazinylbenzamide hydrochloride]: the enrichment ratioavg in assay [1] (probe 2 1 mM 0.5 h vs probe 4) came out at 5; in assay [2] (probe 2 1 mM 0.5 h vs probe 4, MDA-MB-231), 12. Moreover, the competition ratioavg came to 5 in assay [1] (probe 2 vs probe 2+10x probe 4) and 3 in assay [2] (probe 2 vs probe 2+10x probe 4, MDA-MB-231).
In the case of `C#CCNN.Cl` [probe 1, prop-2-yn-1-ylhydrazine hydrochloride], the enrichment ratioavg in assay [1] (probe 1 3 mM 0.5 h vs probe 3) was determined as 12; in assay [2] (probe 1 3 mM 0.5 h vs probe 3, HEK293T) it was 17. Also, the competition ratioavg was 3 in assay [1] (probe 1 vs probe 1+10x probe 3) and 20 in assay [2] (probe 1 vs probe 1+10x probe 3, HEK293T).
